How the values were obtained:
internalized S-SMase = biological target: T1, internalized S-SMase (Homo sapiens, UniProt P17405); assay: SMase activity in homogenates of type A Niemann-Pick fibroblasts after internalization of FLAG-tagged S-SMase; format: biochemical; settings: 0.1 mM ZnCl2, sonicated cell homogenates
T1 construct: FLAG; purchased AMGEN, Boulder, Colo
T1 sequence (P17405 47-631): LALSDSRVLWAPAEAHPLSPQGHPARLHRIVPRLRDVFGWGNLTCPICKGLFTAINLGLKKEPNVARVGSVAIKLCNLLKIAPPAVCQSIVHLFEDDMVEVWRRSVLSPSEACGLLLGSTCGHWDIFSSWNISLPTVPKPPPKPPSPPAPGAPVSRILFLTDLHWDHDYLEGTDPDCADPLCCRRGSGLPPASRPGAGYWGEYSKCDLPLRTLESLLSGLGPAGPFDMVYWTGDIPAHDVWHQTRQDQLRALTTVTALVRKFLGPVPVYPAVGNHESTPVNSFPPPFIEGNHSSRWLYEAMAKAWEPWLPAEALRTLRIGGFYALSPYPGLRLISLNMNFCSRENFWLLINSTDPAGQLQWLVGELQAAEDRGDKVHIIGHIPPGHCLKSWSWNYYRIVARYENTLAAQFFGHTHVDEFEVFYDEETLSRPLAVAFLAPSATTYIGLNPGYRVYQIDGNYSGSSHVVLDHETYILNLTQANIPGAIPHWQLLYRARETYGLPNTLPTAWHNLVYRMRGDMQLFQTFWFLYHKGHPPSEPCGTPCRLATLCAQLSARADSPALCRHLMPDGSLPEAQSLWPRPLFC
Experimental: FIG. 17. Zn^2+-dependency of S-SMase after internalization by type A Niemann-Pick cells. Skin fibroblasts from a patient with type A Niemann-Pick disease (NP-A Cells) were grown to 90% confluency in medium supplemented with 10% HI-FBS. The cells were then washed three times with PBS and incubated in serum-free media containing 0.2% BSA and 850 ng immunoaffinity-isolated FLAG-tagged S-SMase (Purified S-SMase)/ml at 37° C. for 16 h. The cell homogenate and incubation medium were then prepared as described in “Experimental Procedures”, and aliquots were assayed for SMase activity in the presence of either 5 mM EDTA (hatched bars) or 0.1 mM ZnCl2 (solid bars) for 2 h at 37° C. at pH 5.0. […]
SMase Assay—As previously described (Schissel et al., 1996), the standard 200-μl assay mixture consisted of up to 40 μl of sample (conditioned media or homogenized cells; see above) and a volume of assay buffer (0.1 M sodium acetate, pH 5.0) to bring the volume to 160 μl. […] The ceramide spots were scraped and directly counted to quantify [^3H]ceramide. Typically, the assay reactions contained approximately 20 μg of cellular homogenate protein and a volume of conditioned media derived from a quantity of cells equivalent to approximately 50 μg of cellular protein. […]

ASM (SMase) mRNA = assay: Northern blot of SMase mRNA in HUVECs; format: cell-based, human; settings: IL-1β 5 ng/ml, 18 h
Experimental: FIG. 24. Northern blot analysis of HUVECs incubated in the absence or presence of IL-1β. HUVECs were incubated for 18 h in DMEM, 0.2% BSA alone (Con) or containing human recombinant interleukin-1β (5 ng/ml) (IL1β).
Northern Blot of SMase mRNA—Total cellular RNA was isolated from HUVECs using RNAzol B (Tel-Test. Inc., Friendswood, Tex.). Approximately 10 μg of RNA was separated on a 1% agarose gel and blotted onto a nylon membrane. The membrane was hybridized in a QuikHyb hybridization solution (Stratagene) with a 1.6-kB EcoRI-XhoI fragment of human ASM cDNA (41) that was labeled with ^32P by the random-priming Procedure (GIBCO-BRL®). The amount of RNA loaded for each condition was normalized using a probe to glyceraldehyde-3-phosphate dehydrogenase. The relative intensities of the mRNA bands were determined by densitometric scanning of the autoradiograms using a Molecular Dynamics Computing Densitometer (model 300A) with Image-Quant software.

Row | Molecule | effect of added Zn2+ on cellular enzymatic activity (internalized S-SMase) | increase in SMase mRNA normalized for GAPDH mRNA (ASM (SMase) mRNA) [%]
1 | [Cl-].[Cl-].[Zn+2] [Zn^2+, ZnCl2] | failed to increase | 
2 | IL-1β: human recombinant interleukin-1β |  | ~40
